Consider 27 compounds from US6660737B2, “Medicinal uses of hydrazones” (The Procter & Gamble Company, priority 2001, dated 2003).

pEC50: −log10 of the molar value.

In the assay the test system is VEGF. Put plainly: VEGF-ELISA assay: VEGF secretion from HL-1 cardiomyocyte cell line. The format is cell-based, Murine. The conditions noted are these: HL-1 cells, 18 hr, VEGF in conditioned media by ELISA; read-out: EC50 (concentration of compound that induces the production of an amount of VEGF equal to half the maximum amount of VEGF induced by that compound). The procedure:
^1EC50 is the concentration of compound that induces the production of an amount of VEGF equal to half the maximum amount of VEGF induced by that compound.
Any compound of the present invention can be screened by a VEGF-ELISA assay. VEGF secretion is assayed in the HL-1 cardiomyocyte cell line as described in Claycomb, W. C., “HL-1 cells: a cardiac muscle cell line that contracts and retains phenotypic characteristics of the adult cardiomyocyte”, Proc. Natl. Acad. Sci U.S.A., Vol. 95, pp. 2979-84 (1998). For experiments, HL-1 cells are plated in 96-well plates at a density of 2×10^4 cells per well in growth medium: EXCEL 320 media (JRH Biosciences, Lenexia, Kans.) plus 10% fetal bovine serum (BioWhitaker), 100 nM retinoic acid (Sigma, St Louis, Mo.), 10 μM norepinephrine (Sigma), 10 μg/ml insulin (Life Technologies, Grand Island, N.Y.), 1× non-essential amino acid supplement (Life Technologies), 50 μg/ml endothelial cell growth supplement (Upstate Biotechnology, Lake Placid, N.Y.), 100 units/ml penicillin, 100 units/mil streptomycin (Life Technologies). After 24 hrs, the media is replaced with a low-growth media (HL-1 media with 2% fetal bovine serum and without endothelial cell growth supplement) containing test compounds with 0.5% dimethyl sulfoxide (DMSO). After 18 hrs, conditioned media from the treated cells was assayed for VEGF content with a Murine VEGF-ELISA kit (R & D Systems, Minneapolis, Minn.). The amount of VEGF secreted into the media over an 18 hr period is normalized to positive control wells which are treated with a maximally effective concentration (1 mM) of deferoxamine mesylate (Sigma, St. Louis) and are reported as “percent activity,” where the VEGF in unstimulated wells is defined as 0% and the VEGF in wells treated with 1 mM deferoxamine is defined as 100%. Potency is determined by stimulating cells with 10 concentrations of test compounds (200 nM to 100 μM) and fitting the data to a variable slope sigmoidal dose-response curve using GraphPad Prism version 3.00 for Windows 95 (GraphPad Software, San Diego, Calif.). Determinations for each test compound are performed in three separate experiments and the means ±standard deviation of the Log(EC50) and maximum response are evaluated. Compounds for pharmaceutical use are selected based upon the greatest percent activity.

As for `C(=N\Nc1ccccn1)/c1ccccn1` [Example 1, N-Pyridin-2-yl-N′-2-ylmethylene-hydrazine], the pEC50 was 5.80. Next, `C/C(=N\Nc1ccccn1)c1ccccn1` [Example 2, N-Pyridin-2-yl-N′-(1-pyridin-2-yl-ethylidene)hydrazine]: 6.19; `CN(/N=C/c1ccccn1)c1ccccn1` [Example 3, N-methyl-N-pyridin-2-yl-N′-pyridin-2-ylmethylene-hydrazine]: 6.12; `c1ccc(CNNc2ccccn2)nc1` [Example 4, N-Pyridin-2-yl-N′-pyridin-2-ylmethyl-hydrazine]: 5.24. The same measure for `C/C(=N\N(C)c1ccccn1)c1ccccn1` [Example 5, N-Methyl-N-pyridin-2-yl-N′-(1-pyridin-2-yl-ethylidene)-hydrazine]: 4.58; for `C(=N\Nc1nc2ccccc2s1)/c1ccccn1` [Example 6, N-Benzothiazol-2-yl-N′-pyridin-2-ylmethylene-hydrazine]: 5.82; for `C(=N\Nc1ccc2ccccc2n1)/c1ccccn1` [Example 7, N-Pyridin-2-ylmethylene-N′-quinolin-2-yl-hydrazine]: 5.50. The same measure for `FC(F)(F)c1cc(C(F)(F)F)c2ccc(N/N=C/c3ccccn3)nc2n1` [Example 8, N-(5,7-Bis-trifluoromethyl-[1,8]naphthyridin-2-yl)-N′-pyridin-2-ylmethylene-hydrazine]: 5.80. As to `Clc1ccc(N/N=C/c2ccccn2)nn1` [Example 9, N-(6-Chloro-pyridazin-3-yl)-N′-pyridin-2-ylmethylene-hydrazine], the pEC50 is 5.17. Next, `FC(F)(F)c1cnc(N/N=C/c2ccccn2)c(Cl)c1` [Example 10, N-(3-Chloro-5-trifluoromethyl-pyridin-2-yl)-N′-pyridin-2-ylmethylene-hydrazine]: 5.81. Next, `CN(/N=C/c1ccccn1)c1ncc(C(F)(F)F)cc1Cl` [Example 11, N-(3-Chloro-5-trifluoromethyl-pyridin-2-yl)-N-methyl-N′pyridin-2-ylmethylene-hydrazine]: 4.82; `C/C(=N\Nc1nc(C)cc(C)n1)c1ccccn1` [Example 12, N-(4,6-Dimethyl-pyrimidin-2-yl)-N′-(1-pyridin-2-yl-ethylidien)-hydrazine]: 5.32; `C/C(=N\Nc1ccc(C(F)(F)F)cc1)c1ccccn1` [Example 13, N-(1-Pyridin-2-yl-ethylidene)-N′-(4-trifluoromethyl-phenyl)-hydrazine]: 5.37.

Consider `C(=N\Nc1nnc2c(n1)[nH]c1ccccc12)/c1ccccn1` [Example 14, N-Pyridin-2-ylmethylene-N′-(9H-1,3,4,9-tetraaza-fluoren-2-yl)-hydrazine], for which the pEC50 is 5.64. The same measure for `C/C(=N\Nc1nnc2c(n1)[nH]c1ccccc12)c1ccccn1` [Example 15, N-(1-Pyridin-2-yl-ethylidene)-N-(9H-1,3,4,9-tetraaza-fluoren-2-yl)-hydrazine]: 6.44; for `C(=N\Nc1ccccc1)/c1ccccn1` [Example 16, N-Phenyl-N′-pyridin-2-ylmethylene-hydrazine]: 4.89; for `Cc1ccccc1/C=N/Nc1ccccc1` [Example 17, N-(2-Methyl-benzylidene)-N′-phenyl-hydrazine]: 4.82. The same measure for `Oc1ccccc1/C=N/Nc1ccccc1` [Example 18, 2-(Phenyl-hydrazonomethyl)-phenol]: 4.85; for `Oc1ccccc1/C=N/Nc1nccnc1Cl` [Example 19, 2-[(3-Chloro-pyrazin-2-yl)-hydrazonomethyl]-phenol]: 4.82; for `Oc1ccccc1/C=N/Nc1ccccn1` [Example 20, 2-Pyridyl-(2-hydroxy-benzylidene)-hydrazide]: 5.24. The same measure for `Oc1ccc(/C=N/Nc2nccnc2Cl)c(O)c1` [Example 21, 4-[(3-Chloro-pyrazin-2-yl)-hydrazonomethyl]-benzene-1,3-diol]: 4.99. `Cc1ncc(CO)c(/C=N/Nc2ccccn2)c1O` [Example 22, 5-Hydroxymethyl-2-methyl-4-(pyridin-2-yl-hydrazonomethyl)-3-ol]: the pEC50 was 5.75. The same measure for `COc1cccc(/C=N/Nc2ccccn2)c1O` [Example 23, 2-Methoxy-6-(pyridin-2-yl-hydrazonomethyl)-phenol]: 5.15; for `Cc1cccc(/C=N/Nc2ccccn2)n1` [Example 25, N-(6-Methyl-pyridin-2-ylmethylene)-N′-pyridin-2-yl-hydrazine]: 4.54; for `Cc1cccc(/C=N/Nc2ccc(Cl)nn2)n1` [Example 26, N-(6-Chloro-pyridazine-3-yl)-N′-(6-methyl-pyridin-2-ylmethylene)-hydrazine]: 4.40. The same measure for `Cc1sc2ncnc(N/N=C/c3c(O)ccc4ccccc34)c2c1C` [Example 27]: 5.74. The same measure for `Oc1ccc(/C=N/Nc2nc(N3CCCC3)nc(N3CCCC3)n2)cc1O` [Example 28, 4-[(4,6-Di-pyrrolidin-1-yl-[1,3,5]triazin-2-yl)-hydrazonomethyl]-benzene-1,2-diol]: 5.96.
